Like-named read-outs stand apart in the source and are kept apart here.
Key:
Test in all cases: biochemical
Parameters in all cases: protein methyltransferase selectivity panel, enzyme activity relative to DMSO controls, single concentration in duplicate
GLP = target: T1, GLP (Homo sapiens, UniProt Q9H9B1); conditions: Substrate:=Histone H3 1-21
T1 construct: gene EHMT1
T1 sequence (Q9H9B1 1-1298): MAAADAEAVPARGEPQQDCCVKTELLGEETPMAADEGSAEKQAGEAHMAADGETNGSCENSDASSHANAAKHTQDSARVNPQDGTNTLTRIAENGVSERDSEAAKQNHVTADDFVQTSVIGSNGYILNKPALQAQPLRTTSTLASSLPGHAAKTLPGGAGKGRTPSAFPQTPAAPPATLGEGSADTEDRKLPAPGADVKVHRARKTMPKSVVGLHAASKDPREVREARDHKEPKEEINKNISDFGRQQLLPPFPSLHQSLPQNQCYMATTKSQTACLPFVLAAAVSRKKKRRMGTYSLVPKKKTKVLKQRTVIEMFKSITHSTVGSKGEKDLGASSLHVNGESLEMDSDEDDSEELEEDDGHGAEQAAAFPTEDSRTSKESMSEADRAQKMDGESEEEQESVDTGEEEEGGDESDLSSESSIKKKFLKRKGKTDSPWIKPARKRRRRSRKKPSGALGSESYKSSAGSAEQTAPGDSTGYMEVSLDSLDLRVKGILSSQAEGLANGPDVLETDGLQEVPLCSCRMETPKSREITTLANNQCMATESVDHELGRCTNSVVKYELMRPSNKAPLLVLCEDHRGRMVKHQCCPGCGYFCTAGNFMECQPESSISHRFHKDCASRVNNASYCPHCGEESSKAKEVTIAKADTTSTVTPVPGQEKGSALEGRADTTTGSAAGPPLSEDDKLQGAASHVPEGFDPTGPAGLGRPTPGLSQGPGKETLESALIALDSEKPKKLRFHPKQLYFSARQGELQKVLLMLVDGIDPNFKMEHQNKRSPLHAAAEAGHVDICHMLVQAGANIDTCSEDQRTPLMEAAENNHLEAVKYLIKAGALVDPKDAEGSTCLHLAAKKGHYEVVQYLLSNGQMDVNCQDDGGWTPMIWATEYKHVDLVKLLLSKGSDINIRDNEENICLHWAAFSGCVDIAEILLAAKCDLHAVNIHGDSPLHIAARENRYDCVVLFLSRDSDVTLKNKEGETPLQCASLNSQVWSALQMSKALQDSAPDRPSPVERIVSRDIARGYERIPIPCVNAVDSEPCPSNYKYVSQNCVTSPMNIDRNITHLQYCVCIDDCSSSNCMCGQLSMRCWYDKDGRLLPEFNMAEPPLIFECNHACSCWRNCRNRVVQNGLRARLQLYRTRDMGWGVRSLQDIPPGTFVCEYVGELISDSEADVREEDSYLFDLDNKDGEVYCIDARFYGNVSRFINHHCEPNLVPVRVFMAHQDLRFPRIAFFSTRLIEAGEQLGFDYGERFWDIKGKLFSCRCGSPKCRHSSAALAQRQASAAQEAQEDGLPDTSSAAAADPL
Method: (§1) We next assessed selectivity of MS67 against 22 protein methyltransferases (table S2) and a broad panel of common drug targets including 45 kinases (table S3) and 44 G protein–coupled receptors (GPCR), ion channels, and transporters (table S4). […] We subsequently determined that MS67 had moderate binding affinity (Ki = 1.0 ± 0.8 μM) to Sigma 2 receptor (fig. S10).

PRMT1 = PRMT1 (Homo sapiens, UniProt Q99873); conditions: Substrate:=Histone H4
PRMT1, sequence (Q99873 whole entry): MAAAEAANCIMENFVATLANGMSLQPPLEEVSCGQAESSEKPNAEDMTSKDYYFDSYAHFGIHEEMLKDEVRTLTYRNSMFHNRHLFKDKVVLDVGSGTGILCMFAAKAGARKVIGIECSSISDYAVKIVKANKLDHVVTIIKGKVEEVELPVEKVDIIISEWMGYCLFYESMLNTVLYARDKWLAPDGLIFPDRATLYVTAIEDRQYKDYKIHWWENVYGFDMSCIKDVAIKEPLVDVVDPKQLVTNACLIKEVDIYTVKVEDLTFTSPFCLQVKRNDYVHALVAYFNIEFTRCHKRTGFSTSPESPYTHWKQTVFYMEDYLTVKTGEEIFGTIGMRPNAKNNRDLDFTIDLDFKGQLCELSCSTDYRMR
Method: as §1

PRMT6 = PRMT6 (Homo sapiens, UniProt Q96LA8); conditions: Substrate:=GST-GAR
PRMT6, sequence (Q96LA8 whole entry): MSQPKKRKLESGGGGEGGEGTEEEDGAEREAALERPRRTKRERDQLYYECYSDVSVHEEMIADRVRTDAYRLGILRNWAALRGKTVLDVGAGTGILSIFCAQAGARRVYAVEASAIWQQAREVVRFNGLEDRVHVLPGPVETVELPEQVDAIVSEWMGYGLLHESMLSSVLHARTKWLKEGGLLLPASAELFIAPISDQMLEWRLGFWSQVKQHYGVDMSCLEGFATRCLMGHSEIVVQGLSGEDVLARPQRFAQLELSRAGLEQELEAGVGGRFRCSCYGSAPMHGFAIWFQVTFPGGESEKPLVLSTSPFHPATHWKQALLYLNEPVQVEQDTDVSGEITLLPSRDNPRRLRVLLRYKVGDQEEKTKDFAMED
Method: as §1

SMYD3 = target: T2, SMYD3 (Homo sapiens, UniProt Q9H7B4); conditions: Substrate:=MEKK2
T2 sequence (Q9H7B4 1-428): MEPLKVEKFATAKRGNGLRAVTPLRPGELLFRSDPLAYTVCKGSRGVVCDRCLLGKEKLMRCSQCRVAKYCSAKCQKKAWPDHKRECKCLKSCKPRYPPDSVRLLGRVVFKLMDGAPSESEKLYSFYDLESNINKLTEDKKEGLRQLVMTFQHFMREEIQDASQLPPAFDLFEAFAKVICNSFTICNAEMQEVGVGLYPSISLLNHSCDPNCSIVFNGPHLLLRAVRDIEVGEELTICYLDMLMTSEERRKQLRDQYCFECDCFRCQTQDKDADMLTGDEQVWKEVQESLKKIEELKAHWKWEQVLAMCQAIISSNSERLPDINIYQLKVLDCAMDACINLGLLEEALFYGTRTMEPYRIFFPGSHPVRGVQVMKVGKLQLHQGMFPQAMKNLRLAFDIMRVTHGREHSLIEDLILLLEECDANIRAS
Method: as §1

[1] = read-out: Enzyme % Activity (relative to DMSO controls) / MS67 / 10 / Data 1:
[2] = read-out: Enzyme % Activity (relative to DMSO controls) / MS67 / 10 / Data 2:

## Cc1ncsc1-c1ccc([C@H](C)NC(=O)[C@@H]2C[C@@H](O)CN2C(=O)[C@@H](NC(=O)CNC(=O)c2ccc(F)c(-c3ccc(N4C[C@@H](C)N(C)[C@@H](C)C4)c(NC(=O)c4c[nH]c(=O)cc4C(F)(F)F)c3)c2)C(C)(C)C)cc1 [MS67]
GLP; [1]
  remaining activity at 10 µM: 93.6%
GLP; [2]
  remaining activity at 10 µM: 92.2%
PRMT1; [1]
  remaining activity at 10 µM: 98.9%
PRMT1; [2]
  remaining activity at 10 µM: 96%
PRMT6; [1]
  remaining activity at 10 µM: 97.1%
PRMT6; [2]
  remaining activity at 10 µM: 95.1%
SMYD3; [1]
  remaining activity at 10 µM: 103%
SMYD3; [2]
  remaining activity at 10 µM: 116%

Source: paper PMC8500670, “A selective WDR5 degrader inhibits acute myeloid leukemia in patient-derived mouse models” (Science translational medicine, 2021)
